Article PMC6362307, “DPP8/DPP9 inhibition elicits canonical Nlrp1b inflammasome hallmarks in murine macrophages” (Life Science Alliance, 2019)
Like-named read-outs stand apart in the source and are kept apart here. One block for each molecule: values may come before it.

Tests used:
B6 BMDMs = assay: Cell death kinetics, Sytox Green on Incucyte; assay type: cell-based
B6^Nlrp1b+ BMDMs [1] = assay: Cell death kinetics, Sytox Green on Incucyte; assay type: cell-based, mouse; settings: for time to reach 30% half-maximal level of pyroptosis: VBP: all tested concentrations (10, 25, 40 μM), 1G244: 10 μM
B6^Nlrp1b+ BMDMs [2] = assay: Caspase-1 cleavage by immunoblot; assay type: cell-based, mouse; settings: for caspase-1 maturation to p20 (in words): LPS-primed 3 h, 10 or 40 μM, 4, 8 and 24 h; for caspase-1 maturation (in words): LPS-primed, 4 and 8 h
[3] = tested on: LPS-primed B6^Nlrp1b+ BMDMs; assay: IL-1β and IL-18 secretion, Luminex multiplex assay; assay type: cell-based, mouse
B6^Nlrp1b+ BMDMs [4] = assay: ASC speck formation, confocal imaging; assay type: cell-based, mouse; settings: 10 μM; 4 or 8 h
Experimental: Cells were stained with anti-ASC (1:200) antibody, followed by secondary anti-rabbit DyLight 594 (1:1,000). Then, slides were mounted on ProLong Gold Antifade reagent with DAPI for analysis. For quantification of ASC specks, analyses were performed on a spinning-disk system (Zeiss), using an observer Z.1 microscope equipped with a Yokogawa disk CSU-X1. Fluorescent images were acquired with the use of a Plan-Apochromat 40×/1.4 oil DIC III objective and a Rolera Em-C2 Camera. Tile scanning was performed combining 4 × 5 images for the final mosaic (total area 7.42 mm × 5.91 mm). The maximum intensity projections of the final mosaic were analysed on Volocity 6.3.1 (PerkinElmer) software for the number of cells containing ASC specks. Seven mosaics were quantified per experimental condition from each biological repeat and the data from all repeats were combined. One-way ANOVA with Tukey’s multiple comparisons analysis was performed in GraphPad Prism 6.0 software.

B6^Nlrp1b+ASC^−/− BMDMs [5] = assay: Cell death kinetics, Sytox Green on Incucyte; assay type: cell-based, mouse; settings: 10 μM
B6^Nlrp1b+ASC^−/− BMDMs [6] = assay: Caspase-1 cleavage by immunoblot; assay type: cell-based, mouse; settings: 10 μM; 8 h
[7] = tested on: B6^Nlrp1b+C1^−/−C11^−/−ASC^−/− macrophages; assay: Cell death morphology, confocal bright-field imaging; assay type: cell-based, mouse; settings: 10 μM; 4 h
[8] = tested on: B6^Nlrp1b+GSDMD^−/− macrophages; assay: Apoptosis induction, confocal bright-field imaging; assay type: cell-based, mouse; settings: 10 μM; 4 h
human DPP9 [9] = target: T1, human DPP9 (Homo sapiens, UniProt Q86TI2); settings: for Inhibitor in lysate / Inhibitor in medium: mouse, 15 min, 10 µM
T1 sequence (Q86TI2 whole entry): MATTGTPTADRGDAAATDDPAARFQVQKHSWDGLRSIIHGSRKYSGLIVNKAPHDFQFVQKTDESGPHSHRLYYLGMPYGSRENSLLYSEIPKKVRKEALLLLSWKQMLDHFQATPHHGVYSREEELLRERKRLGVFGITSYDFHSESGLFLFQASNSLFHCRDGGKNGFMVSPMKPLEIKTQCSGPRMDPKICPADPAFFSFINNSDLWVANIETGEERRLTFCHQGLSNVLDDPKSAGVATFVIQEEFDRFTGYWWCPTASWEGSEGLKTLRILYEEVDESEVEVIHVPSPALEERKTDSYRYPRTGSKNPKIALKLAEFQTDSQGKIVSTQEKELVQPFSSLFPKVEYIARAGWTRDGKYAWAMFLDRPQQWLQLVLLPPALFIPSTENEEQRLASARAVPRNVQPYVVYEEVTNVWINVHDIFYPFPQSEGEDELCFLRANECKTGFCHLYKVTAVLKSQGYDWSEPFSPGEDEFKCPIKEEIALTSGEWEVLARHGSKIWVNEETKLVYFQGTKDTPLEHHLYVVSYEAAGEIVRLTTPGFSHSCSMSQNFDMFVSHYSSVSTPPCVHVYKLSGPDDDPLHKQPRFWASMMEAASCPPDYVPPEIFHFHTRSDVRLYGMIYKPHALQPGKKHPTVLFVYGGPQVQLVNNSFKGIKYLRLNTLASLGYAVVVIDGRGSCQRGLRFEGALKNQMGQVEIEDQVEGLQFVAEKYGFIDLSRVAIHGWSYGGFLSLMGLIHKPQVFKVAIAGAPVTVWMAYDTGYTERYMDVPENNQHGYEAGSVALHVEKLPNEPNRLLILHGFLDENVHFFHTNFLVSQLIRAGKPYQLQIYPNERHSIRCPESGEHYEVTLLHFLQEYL

human DPP9 [10] = target: T1, human DPP9; assay: biochemical
Human DPP2 [11] = target: T2, Human DPP2 (Homo sapiens, UniProt Q9UHL4)
Experimental: (§1) Lys-Ala-paranitroanilide (Lys-Ala-pNA) was used as substrate at a final concentration of 1 mM.

Human DPP2 [12] = target: T2, Human DPP2; assay: biochemical
Experimental: as §1

Human recombinant FAP = target: T3, Human recombinant FAP (Homo sapiens, UniProt Q12884)
T3 sequence (Q12884 26-760 limits assumed): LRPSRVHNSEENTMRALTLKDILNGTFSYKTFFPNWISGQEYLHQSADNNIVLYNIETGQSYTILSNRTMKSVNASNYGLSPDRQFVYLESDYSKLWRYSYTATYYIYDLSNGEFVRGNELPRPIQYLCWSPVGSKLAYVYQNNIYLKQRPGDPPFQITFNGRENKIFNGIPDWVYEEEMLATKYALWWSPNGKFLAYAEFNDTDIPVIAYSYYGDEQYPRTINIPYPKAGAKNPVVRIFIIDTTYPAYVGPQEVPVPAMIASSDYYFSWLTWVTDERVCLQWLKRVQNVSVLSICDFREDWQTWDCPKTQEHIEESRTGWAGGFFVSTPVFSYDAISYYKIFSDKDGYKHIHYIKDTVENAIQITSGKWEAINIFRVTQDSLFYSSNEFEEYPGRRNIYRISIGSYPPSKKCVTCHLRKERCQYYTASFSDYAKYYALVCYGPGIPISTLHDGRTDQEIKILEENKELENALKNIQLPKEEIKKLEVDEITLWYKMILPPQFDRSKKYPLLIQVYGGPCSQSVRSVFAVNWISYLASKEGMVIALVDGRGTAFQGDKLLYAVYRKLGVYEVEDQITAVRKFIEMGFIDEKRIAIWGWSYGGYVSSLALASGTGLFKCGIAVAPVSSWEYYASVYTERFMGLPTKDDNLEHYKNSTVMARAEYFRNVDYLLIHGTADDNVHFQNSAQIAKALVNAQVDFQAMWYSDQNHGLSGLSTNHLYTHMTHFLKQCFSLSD
Experimental: FAP and PREP were assayed in buffer containing 0.1 M Tris–HCl (pH 8), 300 mM NaF, 1 mM EDTA, 50 mM salicylic acid, and 5 mM DTT.

[13] = tested on: B6^Nlrp1b+C1^−/−C11^−/− macrophages; assay: Caspase-8 cleavage by immunoblot; assay type: cell-based, mouse; settings: 10 μM; 4 h
J774.A1 cells = assay: Cell death kinetics, Sytox Green on Incucyte; settings: 10 μM and 25 μM
[14] = calibration curve in cell lysate
[15] = cell lysate of BMDMs that received 10 µM for 15 min
[16] = medium of BMDMs that received 10 µM for 15 min
[17] = Ic50, calibration curve in cell lysate
[18] = Ic50, calibration curve in medium

caspase-1 maturation (in words) (B6^Nlrp1b+ BMDMs [2]; 1 μM): triggered weak caspase-1 processing
caspase-1 maturation (in words) (B6^Nlrp1b+ASC^−/− BMDMs [6]): blunted
Slope factor (human DPP9 [9]; [14]): 1.30 ± 0.09
Slope factor (human DPP9 [9]; calibration curve in medium): 1.39 ± 0.09
Inhibition (human DPP9 [9]; [15]): 98%
Inhibition (human DPP9 [9]; [16]): 100%
Inhibitor in lysate (human DPP9 [9]): 0.06 µM
Inhibitor in medium (human DPP9 [9]): 1.5 µM
IC50 (human DPP9 [10]; [17]): 10 ± 0.6 nM
IC50 (human DPP9 [10]; [18]): 15.3 ± 0.8 nM
Structure (SMILES): N[C@@H](CC(=O)N1CCN(C(c2ccc(F)cc2)c2ccc(F)cc2)CC1)C(=O)N1Cc2ccccc2C1 [1G244]
time at which pyroptosis commences (B6 BMDMs; 10 μM or 25 μM): around 10 h
pyroptosis, share of the cell population (B6 BMDMs; by 24 h, 10 μM or 25 μM): ~20%
pyroptosis level (B6 BMDMs; by 24 h, 40 μM): 40%
cell death induction (in words) (B6^Nlrp1b+ BMDMs [1]; 0.1 μM): failed to trigger a cytotoxic response
cell death induction (in words) (B6^Nlrp1b+ BMDMs [1]; 1 μM): induced a reduced level of pyroptosis
plateau of pyroptosis (B6^Nlrp1b+ BMDMs [1]; 10 μM, by 6 h posttreatment): about 60%
time to reach 30% half-maximal level of pyroptosis (B6^Nlrp1b+ BMDMs [1]): ≤ 2 h
caspase-1 maturation to p20 (in words) (B6^Nlrp1b+ BMDMs [2]): efficiently promoted caspase-1 auto-maturation
secretion of IL-1β and IL-18 (in words) ([3]; 10 or 40 μM, 4, 8 or 24 h): potently triggered secretion of IL-1β and IL-18
ASC speck formation (in words) (B6^Nlrp1b+ BMDMs [4]): marked ASC speck formation
reduction of maximal level of pyroptosis compared with ASC-sufficient B6^Nlrp1b+ macrophages (B6^Nlrp1b+ASC^−/− BMDMs [5]): about 50%
cell death (in words) [7]: remained alive and were fully rescued from apoptosis and pyroptosis induction
apoptosis induction (in words) [8]: potently induce apoptosis

Slope factor (Human DPP2 [11]; [14]): 1.3 ± 0.3
Slope factor (Human DPP2 [11]; calibration curve in medium): 1.4 ± 0.1
Inhibition (Human DPP2 [11]; [15]): 100%
Inhibition (Human DPP2 [11]; [16]): 100%
Inhibitor in lysate (Human DPP2 [11]; mouse, 15 min, 10 µM): 120/66
Inhibitor in medium (Human DPP2 [11]; mouse, 15 min, 10 µM): 52/45
IC50 (Human DPP2 [12]; [17]): 6 ± 1 nM
IC50 (Human DPP2 [12]; [18]): 9.8 ± 0.6 nM
Structure (SMILES): N[C@@H](CCNCc1ccc(Cl)cc1)C(=O)N1CCCCC1 [UAMC39]
cell death induction (in words) (B6 BMDMs; 10, 25 and 40 μM): none of the listed inhibitors triggered a cell death response
cell death induction (in words) (B6^Nlrp1b+ BMDMs [1]; 10, 25 and 40 μM): none of the listed inhibitors triggered a cell death response

Slope factor (Human recombinant FAP; [14]): 1.21 ± 0.07
Slope factor (Human recombinant FAP; calibration curve in medium): 1.2 ± 0.1
Inhibition (Human recombinant FAP; [15]): 100%
Inhibition (Human recombinant FAP; [16]): 100%
Inhibitor in lysate (Human recombinant FAP; mouse, 15 min, 10 µM): 0.4 µM
Inhibitor in medium (Human recombinant FAP; mouse, 15 min, 10 µM): 8.8 µM
Structure (SMILES): N#C[C@@H]1CC(F)(F)CN1C(=O)CNC(=O)c1ccnc2ccccc12 [UAMC1110]
cell death induction (in words) (B6 BMDMs; 10, 25 and 40 μM): none of the listed inhibitors triggered a cell death response
cell death induction (in words) (B6^Nlrp1b+ BMDMs [1]; 10, 25 and 40 μM): none of the listed inhibitors triggered a cell death response

The next lines start with the molecule.

Structure (SMILES): N#C[C@@H]1CCCN1C(=O)[C@@H]1CCCN1C(=O)CCCc1ccccc1 [KYP-2047]
cell death induction (in words) (B6 BMDMs; 10, 25 and 40 μM): none of the listed inhibitors triggered a cell death response
cell death induction (in words) (B6^Nlrp1b+ BMDMs [1]; 10, 25 and 40 μM): none of the listed inhibitors triggered a cell death response

Structure (SMILES): CC(C)[C@H](N)C(=O)N1CCC[C@H]1B(O)O [VBP, Val-boroPro]
time required to reach 30% cytotoxicity (B6 BMDMs; 10, 25 and 40 μM): about 8 h
level of pyroptosis (SG-positive cells relative to Triton X100) (B6 BMDMs; by 6 h, 10, 25 and 40 μM): ~20%
plateau cytotoxicity (B6 BMDMs; by 24 h, 10, 25 and 40 μM): approximately 50%
time to reach the same level of cell death induction (35%) (B6 BMDMs; rebuttal letter, on Figure 1a): approximately 9 h
cell death induction (in words) (B6^Nlrp1b+ BMDMs [1]; 0.1 μM): failed to trigger a cytotoxic response
cell death induction (in words) (B6^Nlrp1b+ BMDMs [1]; 1 μM): sufficient to induce robust pyroptosis
time to reach 30% half-maximal level of pyroptosis (B6^Nlrp1b+ BMDMs [1]): ≤ 3 h
time to reach half-maximal induction of pyroptosis (35% cell death in the total cell population) (B6^Nlrp1b+ BMDMs [1]; rebuttal letter, on Figure 1a): about 3 hours
caspase-1 maturation to p20 (in words) (B6^Nlrp1b+ BMDMs [2]): triggered marked caspase-1 cleavage
caspase-1 maturation (in words) (B6^Nlrp1b+ BMDMs [2]; 0.1 μM): failed to induce caspase-1 auto-cleavage
caspase-1 maturation (in words) (B6^Nlrp1b+ BMDMs [2]; 1 μM): sufficient to trigger caspase-1 maturation
secretion of IL-1β and IL-18 (in words) ([3]; 10 or 40 μM, 4, 8 or 24 h): potently released IL-1β
ASC speck formation (in words) (B6^Nlrp1b+ BMDMs [4]): marked ASC speck formation
reduction of maximal level of pyroptosis compared with ASC-sufficient B6^Nlrp1b+ macrophages (B6^Nlrp1b+ASC^−/− BMDMs [5]): about 50%
caspase-1 maturation (in words) (B6^Nlrp1b+ASC^−/− BMDMs [6]): blunted
cell death (in words) [7]: remained alive and were fully rescued from apoptosis and pyroptosis induction
caspase-8 cleavage (in words) [13]: marked ASC-dependent caspase-8 cleavage
apoptosis induction (in words) [8]: potently induce apoptosis
cytotoxic response (in words) (J774.A1 cells): elicited a swift and robust cytotoxic response

Structure (SMILES): CC(=O)N[C@H](C(=O)N1CCC[C@H]1B(O)O)C(C)C [aVBP]
cell death induction (in words) (B6 BMDMs; 10, 25 and 40 μM): failed to induce cytotoxicity
cell death induction (in words) (B6^Nlrp1b+ BMDMs [1]; 10, 25 and 40 μM): failed to induce cytotoxicity
caspase-1 maturation to p20 (in words) (B6^Nlrp1b+ BMDMs [2]): failed to elicit caspase-1 maturation
secretion of IL-1β and IL-18 (in words) ([3]; 10 or 40 μM, 4, 8 or 24 h): failed to induce cytokine secretion

Structure (SMILES): CC(C)[C@@H]1[NH2+][B-](O)(O)[C@@H]2CCCN2C1=O [cVBP]
cell death induction (in words) (B6 BMDMs; 10, 25 and 40 μM): failed to induce cell death
cell death induction (in words) (B6^Nlrp1b+ BMDMs [1]; 10, 25 and 40 μM): induced significant pyroptosis
caspase-1 maturation to p20 (in words) (B6^Nlrp1b+ BMDMs [2]): caspase-1 p20 cleavage was detected only in lysates of macrophages that had been treated with the highest concentration (40 μM)
secretion of IL-1β and IL-18 (in words) ([3]; 10 μM): less efficient in eliciting extracellular secretion of IL-1β and IL-18
secretion of IL-1β and IL-18 (in words) ([3]; 40 μM): triggered substantial extracellular release of IL-1β and IL-18
Slope factor (human DPP9 [9]; [14]): 1.4 ± 0.2
Slope factor (human DPP9 [9]; calibration curve in medium): 1.33 ± 0.08
Inhibition (human DPP9 [9]; [15]): 2.7%
Inhibition (human DPP9 [9]; [16]): 71%
Inhibitor in lysate (human DPP9 [9]): 0.3 µM
Inhibitor in medium (human DPP9 [9]): 3.2 µM
attenuation in ability to inhibit DPP9 activity in vitro (human DPP9 [9]; relative to VBP): more than 100 fold
IC50 (human DPP9 [10]; [17]): 1600 ± 100 nM
IC50 (human DPP9 [10]; [18]): 1700 ± 80 nM

Structure (SMILES): N[C@@H](CC(=O)N1CCn2c(nnc2C(F)(F)F)C1)Cc1cc(F)c(F)cc1F [sitagliptin]
cell death induction (in words) (B6 BMDMs; 10, 25 and 40 μM): none of the listed inhibitors triggered a cell death response
cell death induction (in words) (B6^Nlrp1b+ BMDMs [1]; 10, 25 and 40 μM): none of the listed inhibitors triggered a cell death response
